# Reference: paper PMC5218480 (PLoS ONE, 2017)
# Test system: MV-4-11 cells
# Experiment: Gene expression microarray analysis (Affymetrix PrimeView) and GSEA
# Type: cell-based, human
# Design: RFU PODN (11730768_x_at) / Fold change /veh PODN (11730768_x_at) / RFU LINC00158 (11744669_a_at) / Fold change /veh LINC00158 (11744669_a_at) / RFU DUSP10 (11751237_a_at) / Fold change /veh DUSP10 (11751237_a_at) / RFU ID3 (11757404_x_at) / Fold change /veh ID3 (11757404_x_at) / RFU PLEKHG5 (11737974_s_at) / Fold change /veh PLEKHG5 (11737974_s_at) / RFU LRRC4B (11730491_at) / Fold change /veh LRRC4B (11730491_at) / RFU GIMAP4 (11747438_a_at) / Fold change /veh GIMAP4 (11747438_a_at) / RFU KRT8 (11758183_x_at) / Fold change /veh KRT8 (11758183_x_at) / RFU CNN1 (11734310_a_at) / Fold change /veh CNN1 (11734310_a_at) / RFU VPS37D (11726825_at) / Fold change /veh VPS37D (11726825_at) / RFU C10orf10 (11716522_x_at) / Fold change /veh C10orf10 (11716522_x_at) / RFU KIR2DL2 /// KIR2DL4 /// KIR2DL5A /// KIR2DL5B /// KIR2DS1 /// KIR2DS2 /// KIR2DS3 /// KIR2DS4 /// KIR3DL3 /// KIR3DL3 /// KIR3DS1 (11738374_at) / Fold change /veh KIR2DL2 /// KIR2DL4 /// KIR2DL5A /// KIR2DL5B /// KIR2DS1 /// KIR2DS2 /// KIR2DS3 /// KIR2DS4 /// KIR3DL3 /// KIR3DL3 /// KIR3DS1 (11738374_at) / RFU C1QL1 (11718748_at) / Fold change /veh C1QL1 (11718748_at) / RFU TMPRSS4 (11747572_a_at) / Fold change /veh TMPRSS4 (11747572_a_at) / RFU HAMP (11756126_x_at) / Fold change /veh HAMP (11756126_x_at) / RFU RNFT2 (11725882_a_at) / Fold change /veh RNFT2 (11725882_a_at) / RFU NR4A2 (11747474_a_at) / Fold change /veh NR4A2 (11747474_a_at) / RFU ABCC12 (11746883_a_at) / Fold change /veh ABCC12 (11746883_a_at) / RFU TMEM136 (11760407_x_at) / Fold change /veh TMEM136 (11760407_x_at) / RFU CLDN22 /// WWC2 (11732394_at) / Fold change /veh CLDN22 /// WWC2 (11732394_at) / RFU HLA-DPB1 (11760878_x_at) / Fold change /veh HLA-DPB1 (11760878_x_at) / RFU SPINT1 (11716480_a_at) / Fold change /veh SPINT1 (11716480_a_at) / RFU GAP43 (11754022_s_at) / Fold change /veh GAP43 (11754022_s_at) / RFU A4GNT (11735810_at) / Fold change /veh A4GNT (11735810_at) / RFU PRB3 (11715151_x_at) / Fold change /veh PRB3 (11715151_x_at) / RFU TUBB4B (11761932_at) / Fold change /veh TUBB4B (11761932_at) / RFU CAPN14 (11732068_a_at) / Fold change /veh CAPN14 (11732068_a_at) / RFU TMCC2 (11721928_a_at) / Fold change /veh TMCC2 (11721928_a_at) / RFU IRGQ (11745062_a_at) / Fold change /veh IRGQ (11745062_a_at) / RFU FAM174B (11720279_a_at) / Fold change /veh FAM174B (11720279_a_at) / RFU TMPRSS4 (11748680_a_at) / Fold change /veh TMPRSS4 (11748680_a_at) / RFU FAM212B (11763350_a_at) / Fold change /veh FAM212B (11763350_a_at) / RFU PLEKHG5 (11743358_a_at) / Fold change /veh PLEKHG5 (11743358_a_at) / RFU ZSCAN30 (11745921_a_at) / Fold change /veh ZSCAN30 (11745921_a_at) / RFU CMKLR1 (11741424_a_at) / Fold change /veh CMKLR1 (11741424_a_at) / RFU LOC101060620 /// MAPK8IP1 (11723275_at) / Fold change /veh LOC101060620 /// MAPK8IP1 (11723275_at) / RFU SPTSSB (11747773_x_at) / Fold change /veh SPTSSB (11747773_x_at) / RFU PRSS12 (11739890_at) / Fold change /veh PRSS12 (11739890_at) / RFU BIN1 (11741810_x_at) / Fold change /veh BIN1 (11741810_x_at) / RFU WNT11 (11732464_a_at) / Fold change /veh WNT11 (11732464_a_at) / RFU C10orf10 (11716521_a_at) / Fold change /veh C10orf10 (11716521_a_at) / RFU C5orf56 (11738089_at) / Fold change /veh C5orf56 (11738089_at) / RFU CYB561 (11721691_x_at) / Fold change /veh CYB561 (11721691_x_at) / RFU ANKRD19P (11752326_a_at) / Fold change /veh ANKRD19P (11752326_a_at) / RFU OR2T12 /// OR2T33 /// OR2T8 (11738714_s_at) / Fold change /veh OR2T12 /// OR2T33 /// OR2T8 (11738714_s_at) / RFU VCAN (11748164_a_at) / Fold change /veh VCAN (11748164_a_at) / RFU JSRP1 (11732532_at) / Fold change /veh JSRP1 (11732532_at) / RFU KRTAP10-11 (11738290_x_at) / Fold change /veh KRTAP10-11 (11738290_x_at) / RFU MYO3A (11730013_a_at) / Fold change /veh MYO3A (11730013_a_at) / RFU EBF3 (11725865_a_at) / Fold change /veh EBF3 (11725865_a_at) / RFU CAMK2N1 (11719241_x_at) / Fold change /veh CAMK2N1 (11719241_x_at) / RFU C5orf56 (11738088_a_at) / Fold change /veh C5orf56 (11738088_a_at) / RFU OLFML3 (11715873_a_at) / Fold change /veh OLFML3 (11715873_a_at) / RFU LOC100653217 /// NTM (11731650_a_at) / Fold change /veh LOC100653217 /// NTM (11731650_a_at) / RFU MAPK11 (11762145_a_at) / Fold change /veh MAPK11 (11762145_a_at) / RFU FIZ1 (11724087_x_at) / Fold change /veh FIZ1 (11724087_x_at) / RFU OASL (11726364_x_at) / Fold change /veh OASL (11726364_x_at) / RFU SOX15 (11748057_x_at) / Fold change /veh SOX15 (11748057_x_at) / RFU CD79A (11719716_a_at) / Fold change /veh CD79A (11719716_a_at) / RFU HIST1H1D (11736915_at) / Fold change /veh HIST1H1D (11736915_at) / RFU CASKIN2 (11723855_a_at) / Fold change /veh CASKIN2 (11723855_a_at) / RFU LOC730098 (11760151_x_at) / Fold change /veh LOC730098 (11760151_x_at) / RFU OR4N2 (11742367_at) / Fold change /veh OR4N2 (11742367_at) / RFU PRRT2 (11749266_a_at) / Fold change /veh PRRT2 (11749266_a_at) / RFU SNX32 (11753110_a_at) / Fold change /veh SNX32 (11753110_a_at) / RFU CDHR5 (11726645_a_at) / Fold change /veh CDHR5 (11726645_a_at) / RFU RCAN1 (11760418_a_at) / Fold change /veh RCAN1 (11760418_a_at) / RFU FAM167A (11723789_a_at) / Fold change /veh FAM167A (11723789_a_at) / RFU FAM26E (11764081_at) / Fold change /veh FAM26E (11764081_at) / RFU ISYNA1 (11749810_s_at) / Fold change /veh ISYNA1 (11749810_s_at) / RFU ACY1 (11761880_at) / Fold change /veh ACY1 (11761880_at) / RFU 11764098_at / Fold change /veh 11764098_at / RFU SAMD14 (11745864_x_at) / Fold change /veh SAMD14 (11745864_x_at) / RFU NPB (11741838_a_at) / Fold change /veh NPB (11741838_a_at) / RFU TMPRSS6 (11731388_a_at) / Fold change /veh TMPRSS6 (11731388_a_at) / RFU KRTAP10-2 (11738614_at) / Fold change /veh KRTAP10-2 (11738614_at) / RFU ARHGAP8 /// PRR5-ARHGAP8 (11727945_x_at) / Fold change /veh ARHGAP8 /// PRR5-ARHGAP8 (11727945_x_at) / RFU KRTAP5-7 /// NADSYN1 (11734609_at) / Fold change /veh KRTAP5-7 /// NADSYN1 (11734609_at) / RFU RASL12 (11751679_a_at) / Fold change /veh RASL12 (11751679_a_at) / RFU CDKN2B (11736163_a_at) / Fold change /veh CDKN2B (11736163_a_at) / RFU PRF1 (11729649_at) / Fold change /veh PRF1 (11729649_at) / RFU, ZNF638 /// ZNF638-IT1 / Fold change vs veh, ZNF638 /// ZNF638-IT1 / RFU, PANK3 / Fold change vs veh, PANK3 / RFU, SH3YL1 / Fold change vs veh, SH3YL1 / RFU, ZEB2 / Fold change vs veh, ZEB2 / RFU, NRIP1 / Fold change vs veh, NRIP1 / RFU, PTTG1IP / Fold change vs veh, PTTG1IP / RFU, CAPN2 / Fold change vs veh, CAPN2 / RFU, MED14 / Fold change vs veh, MED14 / RFU, SNORA58 / Fold change vs veh, SNORA58 / RFU, C1orf63 / Fold change vs veh, C1orf63 / RFU, LRRFIP1 / Fold change vs veh, LRRFIP1 / RFU, NDUFAF7 / Fold change vs veh, NDUFAF7 / RFU, SLC12A2 / Fold change vs veh, SLC12A2 / RFU, IBTK / Fold change vs veh, IBTK / RFU, ESF1 / Fold change vs veh, ESF1 / Fold change vs veh, TMEM50B / RFU, TAOK1 / Fold change vs veh, TAOK1 / RFU, ACBD3 / Fold change vs veh, ACBD3 / RFU, TMA16 / Fold change vs veh, TMA16 / RFU, RWDD3 / Fold change vs veh, RWDD3 / RFU, BCAT1 / Fold change vs veh, BCAT1 / RFU, EDEM3 / Fold change vs veh, EDEM3 / RFU, TMEM33 / Fold change vs veh, TMEM33 / RFU, WDR75 / Fold change vs veh, WDR75 / RFU, AHCTF1 / Fold change vs veh, AHCTF1 / RFU, TFRC / Fold change vs veh, TFRC / RFU, ZDHHC17 / Fold change vs veh, ZDHHC17 / RFU, NOM1 / Fold change vs veh, NOM1 / RFU, ARL8B / Fold change vs veh, ARL8B / RFU, ZBTB11 / Fold change vs veh, ZBTB11 / RFU, TAMM41 / Fold change vs veh, TAMM41 / RFU, KIAA1704 /// LOC100996395 / Fold change vs veh, KIAA1704 /// LOC100996395 / RFU, ING1 / Fold change vs veh, ING1 / RFU, TRMT61B / Fold change vs veh, TRMT61B / RFU, FUBP3 / Fold change vs veh, FUBP3 / RFU, TP53 / Fold change vs veh, TP53 / RFU, TNKS2 / Fold change vs veh, TNKS2 / RFU, ZFP14 / Fold change vs veh, ZFP14 / RFU, ACTR2 / Fold change vs veh, ACTR2 / RFU, PPP3R1 / Fold change vs veh, PPP3R1 / RFU, PIK3R1 / Fold change vs veh, PIK3R1 / RFU, HNRNPA1 / Fold change vs veh, HNRNPA1 / RFU, RNF170 / Fold change vs veh, RNF170 / RFU, ZNF28 / Fold change vs veh, ZNF28 / RFU, RNGTT / Fold change vs veh, RNGTT / RFU, OGT / Fold change vs veh, OGT / RFU, BRD1 / Fold change vs veh, BRD1 / RFU, MARS / Fold change vs veh, MARS / RFU, ZNF655 / Fold change vs veh, ZNF655 / RFU, FAHD1 / Fold change vs veh, FAHD1 / RFU, BDP1 / Fold change vs veh, BDP1 / RFU, LRRCC1 / Fold change vs veh, LRRCC1 / RFU, ARID1A / Fold change vs veh, ARID1A / RFU, ZNF146 / Fold change vs veh, ZNF146 / RFU, ZNF330 / Fold change vs veh, ZNF330 / RFU, GPN3 / Fold change vs veh, GPN3 / RFU, C9orf123 / Fold change vs veh, C9orf123 / RFU, N4BP2L2 / Fold change vs veh, N4BP2L2 / RFU, ARFIP1 / Fold change vs veh, ARFIP1 / RFU, FAM179B / Fold change vs veh, FAM179B / RFU, BCL10 / Fold change vs veh, BCL10 / RFU, UHRF1BP1L / Fold change vs veh, UHRF1BP1L / RFU, BET1 / Fold change vs veh, BET1 / RFU, CNOT2 / Fold change vs veh, CNOT2 / RFU, ZNF268 / Fold change vs veh, ZNF268 / Fold change vs veh, ZNF507 / RFU, DGCR2 / Fold change vs veh, DGCR2 / RFU, WDSUB1 / Fold change vs veh, WDSUB1 / Fold change vs veh, HSP90B1 /// MIR3652 / RFU, ADSS / Fold change vs veh, ADSS / RFU, GK / Fold change vs veh, GK / RFU, ZNF148 / Fold change vs veh, ZNF148 / RFU, TAF9 / Fold change vs veh, TAF9 / RFU, SLC1A5 / Fold change vs veh, SLC1A5 / RFU, SLMO2 / Fold change vs veh, SLMO2 / RFU, ABCC4 / Fold change vs veh, ABCC4 / RFU, LOC101060439 /// RAP1B / Fold change vs veh, LOC101060439 /// RAP1B / RFU, RFX7 / Fold change vs veh, RFX7 / RFU, GTPBP10 / Fold change vs veh, GTPBP10 / RFU, CNEP1R1 / Fold change vs veh, CNEP1R1 / RFU, BIVM-ERCC5 /// ERCC5 / Fold change vs veh, BIVM-ERCC5 /// ERCC5 / RFU, ILF3 / Fold change vs veh, ILF3 / RFU 11762660_at / Fold change /veh 11762660_at / RFU VCAN (11757783_s_at) / Fold change /veh VCAN (11757783_s_at) / RFU DDX43 (11728927_at) / Fold change /veh DDX43 (11728927_at) / RFU KRT8 (11758188_x_at) / Fold change /veh KRT8 (11758188_x_at) / RFU NKD1 (11759106_at) / Fold change /veh NKD1 (11759106_at) / RFU SRD5A1 (11742802_a_at) / Fold change /veh SRD5A1 (11742802_a_at) / RFU TPSAB1 /// TPSB2 (11721975_s_at) / Fold change /veh TPSAB1 /// TPSB2 (11721975_s_at) / RFU GSTM3 (11746129_a_at) / Fold change /veh GSTM3 (11746129_a_at) / RFU IL23R (11737362_x_at) / Fold change /veh IL23R (11737362_x_at) / RFU TMEM51 (11727254_a_at) / Fold change /veh TMEM51 (11727254_a_at) / RFU PIWIL2 (11732686_x_at) / Fold change /veh PIWIL2 (11732686_x_at) / RFU ORM1 (11744905_x_at) / Fold change /veh ORM1 (11744905_x_at) / RFU CCDC152 (11743942_at) / Fold change /veh CCDC152 (11743942_at) / RFU ECM1 (11717891_a_at) / Fold change /veh ECM1 (11717891_a_at) / RFU IL23R (11748794_a_at) / Fold change /veh IL23R (11748794_a_at) / RFU TNFAIP8L3 (11732012_x_at) / Fold change /veh TNFAIP8L3 (11732012_x_at) / RFU MBOAT4 (11741988_at) / Fold change /veh MBOAT4 (11741988_at) / RFU 11764193_at / Fold change /veh 11764193_at / RFU TMEM53 (11763286_at) / Fold change /veh TMEM53 (11763286_at) / RFU MAGEB2 (11727129_at) / Fold change /veh MAGEB2 (11727129_at) / RFU TMEM200A (11744735_a_at) / Fold change /veh TMEM200A (11744735_a_at) / RFU CCDC152 (11751479_a_at) / Fold change /veh CCDC152 (11751479_a_at) / RFU FAM211A (11726209_a_at) / Fold change /veh FAM211A (11726209_a_at) / RFU RGS16 (11746705_a_at) / Fold change /veh RGS16 (11746705_a_at) / RFU VCAN (11755009_s_at) / Fold change /veh VCAN (11755009_s_at) / RFU RHOB (11743442_s_at) / Fold change /veh RHOB (11743442_s_at) / RFU RGS16 (11720943_a_at) / Fold change /veh RGS16 (11720943_a_at) / RFU RGS16 (11720944_at) / Fold change /veh RGS16 (11720944_at) / RFU, VPS4B / Fold change vs veh, VPS4B / RFU, CREB1 / Fold change vs veh, CREB1 / RFU, DNAJC13 / Fold change vs veh, DNAJC13 / RFU, GNAQ / Fold change vs veh, GNAQ / RFU, CDK5R1 / Fold change vs veh, CDK5R1 / RFU, ZRANB3 / Fold change vs veh, ZRANB3 / RFU, CUL4A / Fold change vs veh, CUL4A / RFU, CCNY / Fold change vs veh, CCNY / RFU, UFL1 / Fold change vs veh, UFL1 / RFU, COG3 / Fold change vs veh, COG3 / RFU, DIAPH2 / Fold change vs veh, DIAPH2 / RFU, SKA2 / Fold change vs veh, SKA2 / RFU, AFF3 / Fold change vs veh, AFF3 / RFU, LMF1 / Fold change vs veh, LMF1 / RFU, IPO11 / Fold change vs veh, IPO11 / RFU, DFFB / Fold change vs veh, DFFB / RFU, FOXP1 / Fold change vs veh, FOXP1 / RFU, CARD8 / Fold change vs veh, CARD8 / RFU, STRN3 / Fold change vs veh, STRN3 / RFU, ADK / Fold change vs veh, ADK / RFU, RASSF2 / Fold change vs veh, RASSF2 / RFU, WIPF1 / Fold change vs veh, WIPF1 / RFU, LARP1B / Fold change vs veh, LARP1B / RFU, RASA1 / Fold change vs veh, RASA1 / RFU, RB1 / Fold change vs veh, RB1 / RFU, PPFIA1 / Fold change vs veh, PPFIA1 / RFU, MAT2A / Fold change vs veh, MAT2A / RFU, CCT5 / Fold change vs veh, CCT5 / RFU, WDR92 / Fold change vs veh, WDR92 / RFU, CUX1 / Fold change vs veh, CUX1 / RFU, TTC7A / Fold change vs veh, TTC7A / RFU, TMEM135 / Fold change vs veh, TMEM135 / RFU, DEPTOR / Fold change vs veh, DEPTOR / RFU, CPM / Fold change vs veh, CPM / RFU, DNAJB6 / Fold change vs veh, DNAJB6 / RFU, CACNA2D3 / Fold change vs veh, CACNA2D3 / RFU, DTX4 / Fold change vs veh, DTX4 / RFU, TFCP2 / Fold change vs veh, TFCP2 / RFU, GMCL1 /// GMCL1P1 / Fold change vs veh, GMCL1 /// GMCL1P1 / RFU, AEBP2 / Fold change vs veh, AEBP2 / RFU, SNHG1 /// SNORD22 /// SNORD25 /// SNORD26 /// SNORD27 /// SNORD28 /// SNORD29 /// SNORD31 / Fold change vs veh, SNHG1 /// SNORD22 /// SNORD25 /// SNORD26 /// SNORD27 /// SNORD28 /// SNORD29 /// SNORD31 / Fold change (Aza/veh), C12orf56 (ProbeSet 11735607_a_at) / Fold change (ACY-1035/veh), C12orf56 (ProbeSet 11735607_a_at) / Fold change (Aza/veh), FGFR1OP (ProbeSet 11751329_s_at) / Fold change (ACY-1035/veh), FGFR1OP (ProbeSet 11751329_s_at) / Fold change (Aza/veh), VPS36 (ProbeSet 11739960_a_at) / Fold change (ACY-1035/veh), VPS36 (ProbeSet 11739960_a_at) / RFU SYPL1 (11715823_x_at) / Fold change /veh SYPL1 (11715823_x_at) / RFU IGFBP7 (11715501_s_at) / Fold change /veh IGFBP7 (11715501_s_at) / RFU REEP3 (11722064_at) / Fold change /veh REEP3 (11722064_at) / RFU IGLL1 (11728026_x_at) / Fold change /veh IGLL1 (11728026_x_at): dose or concentration left out as unconfirmed
# Conditions: ProbeSet 11741199_a_at; LIST B
compound,measurement,value
Nc1ncn([C@@H]2O[C@H](CO)[C@@H](O)[C@H]2O)c(=O)n1 [azacitidine],"RFU, LRRCC1",65.24 RFU
